Measurements published in paper PMC4884629 (Toxicology and applied pharmacology, 2013).
pIC50: −log10 of the molar value.

Target: HERG potassium channel (Homo sapiens, UniProt Q12809)
Assay: whole-cell patch clamp, HERG tail current in CHO cells
Type: cell-based

Chain of HERG potassium channel (Q12809 whole entry): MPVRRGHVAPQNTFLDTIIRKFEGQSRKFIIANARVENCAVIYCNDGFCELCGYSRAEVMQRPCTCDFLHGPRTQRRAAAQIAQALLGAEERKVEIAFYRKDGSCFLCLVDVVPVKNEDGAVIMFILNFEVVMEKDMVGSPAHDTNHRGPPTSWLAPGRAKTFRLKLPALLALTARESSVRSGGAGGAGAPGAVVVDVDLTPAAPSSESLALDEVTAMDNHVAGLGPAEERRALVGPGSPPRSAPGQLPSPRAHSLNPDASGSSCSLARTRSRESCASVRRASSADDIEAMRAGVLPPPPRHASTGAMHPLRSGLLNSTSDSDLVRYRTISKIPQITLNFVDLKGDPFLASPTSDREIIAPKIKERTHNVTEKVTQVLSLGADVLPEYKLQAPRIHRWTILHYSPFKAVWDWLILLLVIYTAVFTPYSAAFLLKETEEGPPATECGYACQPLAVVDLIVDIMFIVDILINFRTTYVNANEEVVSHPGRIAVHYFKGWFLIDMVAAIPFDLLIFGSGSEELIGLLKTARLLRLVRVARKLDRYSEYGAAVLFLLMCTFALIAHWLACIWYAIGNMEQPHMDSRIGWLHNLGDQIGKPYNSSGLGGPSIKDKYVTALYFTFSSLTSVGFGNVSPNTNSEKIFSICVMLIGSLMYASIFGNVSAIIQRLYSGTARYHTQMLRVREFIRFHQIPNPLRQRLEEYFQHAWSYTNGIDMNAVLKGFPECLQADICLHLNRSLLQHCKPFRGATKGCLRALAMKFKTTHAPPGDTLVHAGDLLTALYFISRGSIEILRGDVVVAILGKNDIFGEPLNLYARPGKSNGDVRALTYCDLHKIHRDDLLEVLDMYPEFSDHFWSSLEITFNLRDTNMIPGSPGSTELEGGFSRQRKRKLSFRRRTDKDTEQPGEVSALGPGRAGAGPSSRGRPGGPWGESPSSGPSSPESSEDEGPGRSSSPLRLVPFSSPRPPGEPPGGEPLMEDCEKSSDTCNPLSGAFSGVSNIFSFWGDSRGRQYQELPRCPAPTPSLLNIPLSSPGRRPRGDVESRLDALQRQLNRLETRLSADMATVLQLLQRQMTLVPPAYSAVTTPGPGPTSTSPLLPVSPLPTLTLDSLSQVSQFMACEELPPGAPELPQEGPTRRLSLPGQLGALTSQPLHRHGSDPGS

## CCCCCCCC[N+](CCCCCCCC)(CCCCCCCC)CCCCCCCC [TB, tetra-n-octylammonium bromide]
  pIC50: 8.40
